Experimental data reported in PubChem BioAssay AID248 (DTP/NCI, 2004).
Inconclusive results and toxic doses are left out. Cut-off read from the data, not from the text of the source: active = T/C of 150% or more; inactive = T/C below 125%.

Test system: L1210 leukemia ip in BDF1 mice, survival T/C
Test: NCI In Vivo Anticancer Drug Screen. Data for tumor model L1210 Leukemia (intraperitoneal) in B6D2F1 (BDF1) mice
Details: endpoint: mean survival time, higher = longer survival
How it was run: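 Antitumor effect is assessed in tumor-bearing animals. Survival in the compound arm is compared with a vehicle-dosed control arm and expressed as their quotient.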

[1] = dose: 100.0 mg/kg/injection, schedule: Q01DX009 (ip), vehicle: Klucel (hydroxypropylcellulose) (HPC)
[2] = dose: 100.0 mg/kg/injection, schedule: Q04DX003 (ip), vehicle: Klucel (hydroxypropylcellulose) (HPC)
[3] = dose: 200.0 mg/kg/injection, schedule: Q01DX009 (ip), vehicle: Klucel (hydroxypropylcellulose) (HPC)
[4] = dose: 200.0 mg/kg/injection, schedule: Q04DX003 (ip), vehicle: Klucel (hydroxypropylcellulose) (HPC)
[5] = dose: 400.0 mg/kg/injection, schedule: Q01DX009 (ip), vehicle: Klucel (hydroxypropylcellulose) (HPC)
[6] = dose: 400.0 mg/kg/injection, schedule: Q04DX003 (ip), vehicle: Klucel (hydroxypropylcellulose) (HPC)
[7] = dose: 50.0 mg/kg/injection, schedule: Q01DX001 (ip), vehicle: saline
[8] = dose: 100.0 mg/kg/injection, schedule: Q01DX001 (ip), vehicle: saline
[9] = dose: 200.0 mg/kg/injection, schedule: Q01DX001 (ip), vehicle: saline
[10] = dose: 400.0 mg/kg/injection, schedule: Q01DX001 (ip), vehicle: saline
[11] = dose: 100.0 mg/kg/injection, schedule: Q01DX009 (ip), vehicle: saline
[12] = dose: 200.0 mg/kg/injection, schedule: Q01DX009 (ip), vehicle: saline
[13] = dose: 400.0 mg/kg/injection, schedule: Q01DX009 (ip), vehicle: saline
[14] = dose: 100.0 mg/kg/injection, schedule: Q01DX001 (ip), vehicle: Klucel (hydroxypropylcellulose) (HPC)
[15] = dose: 200.0 mg/kg/injection, schedule: Q01DX001 (ip), vehicle: Klucel (hydroxypropylcellulose) (HPC)
[16] = dose: 100.0 mg/kg/injection, schedule: Q04DX002 (ip), vehicle: saline
[17] = dose: 200.0 mg/kg/injection, schedule: Q04DX002 (ip), vehicle: saline
[18] = dose: 100.0 mg/kg/injection, schedule: Q04DX003 (ip), vehicle: saline with Tween-80
[19] = dose: 100.0 mg/kg/injection, schedule: Q04DX003 (ip), vehicle: saline
[20] = dose: 200.0 mg/kg/injection, schedule: Q04DX003 (ip), vehicle: saline with Tween-80
[21] = dose: 400.0 mg/kg/injection, schedule: Q04DX003 (ip), vehicle: saline with Tween-80
[22] = dose: 50.0 mg/kg/injection, schedule: Q01DX001 (ip), vehicle: carboxymethylcellulose (CMC)
[23] = dose: 100.0 mg/kg/injection, schedule: Q01DX001 (ip), vehicle: carboxymethylcellulose (CMC)
[24] = dose: 200.0 mg/kg/injection, schedule: Q01DX001 (ip), vehicle: carboxymethylcellulose (CMC)
[25] = dose: 100.0 mg/kg/injection, schedule: Q01DX005 (ip), vehicle: saline with Tween-80
[26] = dose: 100.0 mg/kg/injection, schedule: Q01DX009 (ip), vehicle: saline with Tween-80
[27] = dose: 200.0 mg/kg/injection, schedule: Q01DX005 (ip), vehicle: saline with Tween-80
[28] = dose: 200.0 mg/kg/injection, schedule: Q01DX009 (ip), vehicle: saline with Tween-80
[29] = dose: 400.0 mg/kg/injection, schedule: Q01DX005 (ip), vehicle: saline with Tween-80
[30] = dose: 400.0 mg/kg/injection, schedule: Q01DX009 (ip), vehicle: saline with Tween-80
[31] = dose: 400.0 mg/kg/injection, schedule: Q01DX001 (ip), vehicle: carboxymethylcellulose (CMC)

Measured: T/C

CCN(CC)c1cc(Cl)c(C=O)cc1[N+](=O)[O-]
inactive: [1] 100 % of control | [2] 94 % of control | [3] 107 % of control | [4] 96 % of control | [5] 102 % of control | [6] 102 % of control

O=c1c2ccccc2nc(-c2ccccc2)n1/N=C/c1ccco1
inactive: [1] 93 % of control | [3] 94 % of control | [5] 96 % of control

CCCCCCCc1nc2c([nH]1)c(=O)n(C)c(=O)n2C
inactive: [7] 98 % of control | [8] 101 % of control | [9] 95 % of control | [10] 116 % of control

CC(=O)NCC(C)(C)c1ccccc1
inactive: [8] 96 % of control | [11] 102 % of control | [9] 102 % of control | [12] 100 % of control | [10] 110 % of control | [13] 102 % of control

Cc1ccc(OC/C=C/CSc2ccc(C)cc2)cc1
inactive: [14] 98 % of control | [2] 101 % of control | [15] 94 % of control | [4] 97 % of control | dose: 400.0 mg/kg/injection, schedule: Q01DX001 (ip), vehicle: Klucel (hydroxypropylcellulose) (HPC) 94 % of control | [6] 95 % of control

O=C1c2c(I)c(I)c(I)c(I)c2C(=O)N1CCO
inactive: [1] 92 % of control | [2] 94 % of control | [3] 97 % of control | [4] 97 % of control | [5] 104 % of control | [6] 92 % of control

CC(=O)OCC/[N+]([O-])=C\c1ncc([N+](=O)[O-])n1C
inactive: [16] 100 % of control | [17] 114 % of control | dose: 400.0 mg/kg/injection, schedule: Q04DX002 (ip), vehicle: saline 100 % of control

COc1cccc(C(Cc2ccc(N3C(N)=NC(N)=NC3(C)C)cc2)C(=O)Nc2ccc(S(=O)(=O)F)cc2)c1 (stereo not drawn)
inactive: dose: 50.0 mg/kg/injection, schedule: Q01DX001 (ip), vehicle: Klucel (hydroxypropylcellulose) (HPC) 99 % of control | [14] 99 % of control | [15] 96 % of control

COc1cc(/C=C2\C(O)C3CCN2CC3)cc(OC)c1OC (stereo not drawn)
inactive: [16] 115 % of control | [17] 118 % of control

COC(=O)C1C2CC(=O)C(C2)C1C(=O)OC (stereo not drawn)
inactive: [11] 96 % of control | [18] 98 % of control | [19] 100 % of control | [12] 105 % of control | [20] 86 % of control | dose: 200.0 mg/kg/injection, schedule: Q04DX003 (ip), vehicle: saline 100 % of control | [13] 99 % of control | [21] 91 % of control | dose: 400.0 mg/kg/injection, schedule: Q04DX003 (ip), vehicle: saline 96 % of control

Clc1nc(N2CC2)nc(N2CC2)c1Br
inactive: dose: 0.2 mg/kg/injection, schedule: Q01DX Z (ip), vehicle: methylcellulose (MC) 88 % of control | dose: 0.5 mg/kg/injection, schedule: Q01DX Z (ip), vehicle: methylcellulose (MC) 104 % of control

CC(C)(C)OC(=O)N1C2c3ccccc3C1C1C2N=NN1c1ccccc1 (stereo not drawn)
inactive: [8] 110 % of control | [9] 95 % of control | [10] 91 % of control

O=S(=O)(OCCCl)c1ccc(Cl)c(Cl)c1
inactive: dose: 100.0 mg/kg/injection, schedule: Q01DX001 (ip), vehicle: saline with Tween-80 92 % of control | dose: 200.0 mg/kg/injection, schedule: Q01DX001 (ip), vehicle: saline with Tween-80 100 % of control | dose: 400.0 mg/kg/injection, schedule: Q01DX001 (ip), vehicle: saline with Tween-80 107 % of control

C[N+](C)(CCOc1ccccc1)Cc1cccs1
inactive: [7] 109 % of control | [8] 97 % of control

O=[N+]([O-])/C(=C/c1ccccc1)c1ccccc1
inactive: [7] 102 % of control | [8] 108 % of control | [9] 104 % of control

Nc1cc([N+](=O)[O-])cc([N+](=O)[O-])c1
inactive: [22] 109 % of control | [23] 118 % of control | [24] 113 % of control

COc1cc2c(cc1OC)C(CCc1ccc(Cl)cc1)N(C)CC2 (stereo not drawn)
inactive: dose: 12.5 mg/kg/injection, schedule: Q01DX009 (ip), vehicle: Klucel (hydroxypropylcellulose) (HPC) 113 % of control | dose: 25.0 mg/kg/injection, schedule: Q01DX009 (ip), vehicle: Klucel (hydroxypropylcellulose) (HPC) 108 % of control | dose: 50.0 mg/kg/injection, schedule: Q01DX009 (ip), vehicle: Klucel (hydroxypropylcellulose) (HPC) 104 % of control | [1] 116 % of control | [3] 113 % of control

COc1ccc(C(=O)C(=O)c2ccccc2Cl)cc1
inactive: [25] 104 % of control | [26] 96 % of control | [27] 101 % of control | [28] 107 % of control | [29] 101 % of control | [30] 100 % of control

NCC(=O)OC(c1ccccc1)(c1ccccc1)c1ccccc1
inactive: [1] 96 % of control | [2] 98 % of control | [3] 96 % of control | [4] 88 % of control | [6] 89 % of control

CC(C)CC1C(C(C)C)C=NN1C (stereo not drawn)
inactive: [22] 100 % of control | [23] 86 % of control | [24] 100 % of control | [31] 94 % of control

CCCOc1ccc(-c2nc(-c3ccc(N=Cc4ccc(N(CCCOS(C)(=O)=O)CCCOS(C)(=O)=O)cc4)cc3)cs2)cc1
inactive: [18] 91 % of control | [20] 86 % of control | [21] 89 % of control

CCOc1cc[n+]([O-])cc1C
inactive: [22] 102 % of control | [23] 98 % of control

c1ccc2cc(SSc3ccc4ccccc4c3)ccc2c1
inactive: [2] 95 % of control | [4] 89 % of control | [6] 86 % of control

Oc1ccc(Cl)cc1N=Cc1ccccc1
inactive: [8] 100 % of control | [9] 105 % of control | [10] 107 % of control

Cc1ccc(NC(=O)C(c2ccccc2)c2ccccc2)cc1Cl
inactive: [1] 108 % of control | [2] 88 % of control | [3] 95 % of control | [4] 91 % of control | [5] 108 % of control | [6] 101 % of control

COc1cc(/C=C(\C#N)c2cccc3ccccc23)cc(OC)c1OC
inactive: [2] 107 % of control | [4] 103 % of control | [6] 94 % of control

CC1=C(C)C(=O)C(CC2=C(C)C(=O)C(C)=C(C)C2=O)=C(C)C1=O
inactive: [25] 101 % of control | [26] 96 % of control | [27] 96 % of control | [28] 100 % of control | [29] 104 % of control | [30] 96 % of control

CC(=O)CN
inactive: [11] 111 % of control | [12] 104 % of control | [13] 108 % of control

CCN(CC)Cc1cc(Nc2c3ccccc3nc3cc(Cl)ccc23)ccc1O
inactive: dose: 12.5 mg/kg/injection, schedule: Q01DX009 (ip), vehicle: saline 101 % of control | dose: 25.0 mg/kg/injection, schedule: Q01DX009 (ip), vehicle: saline 98 % of control | dose: 30.0 mg/kg/injection, schedule: Q01DX Z (ip), vehicle: methylcellulose (MC) 113 % of control | dose: 30.0 mg/kg/injection, schedule: Q01DX Z (ip), vehicle: saline 101 % of control | dose: 45.0 mg/kg/injection, schedule: Q01DX Z (ip), vehicle: methylcellulose (MC) 100 % of control | dose: 45.0 mg/kg/injection, schedule: Q01DX Z (ip), vehicle: saline 109 % of control | [22] 102 % of control | dose: 50.0 mg/kg/injection, schedule: Q01DX009 (ip), vehicle: saline 103 % of control | dose: 67.0 mg/kg/injection, schedule: Q01DX Z (ip), vehicle: methylcellulose (MC) 101 % of control | dose: 67.0 mg/kg/injection, schedule: Q01DX Z (ip), vehicle: saline 107 % of control | [23] 102 % of control | dose: 100.0 mg/kg/injection, schedule: Q01DX Z (ip), vehicle: methylcellulose (MC) 103 % of control | [19] 91 % of control | [24] 105 % of control | [31] 102 % of control
